Results on two compounds are retold here after US7875599B2, “C-17-heteroaryl steroidal CYP17 inhibitors/antiandrogens, in vitro biological activities, pharmacokinetics and antitumor activity” (University of Maryland, priority 2005, dated 2011).

For series [1], the system named is LAPC4 human prostate tumor xenograft. Description: LAPC4 xenograft, first experiment (established tumors, 4 weeks of treatment). The format is in vivo, mouse. As to conditions: 28 days. On the procedure: In the first experiment, the effect of compounds 5 and 6 on the growth of well-established LAPC4 prostate cancer tumors in SCID mice is determined, and castration is used as the reference treatment. Tumor-bearing mice are assigned (n=5/group) to receive one of two doses of 5 or 6 (0.15 mmol/kg once-daily or 0.15 mmol/kg twice-daily). Tumor volumes are measured weekly and compared with controls receiving vehicle or castrated mice.
(§1) In Vivo Antitumor Studies (LAPC-4 Prostate Cancer Xenografts): All animal studies are performed according to the guidelines and approval of the Animal Care Committee of the University of Maryland School of Medicine, Baltimore. Male severe combined immunodeficient (SCID) mice 4-6 weeks of age purchased from the National Cancer Institute-Frederick Cancer Research and Development Center (Fredrick, Md.) are housed in a pathogen-free environment under controlled conditions of light and humidity and allowed free access to food and water. Tumors are developed from LAPC4 cells inoculated subcutaneously (s.c.) in the mice essentially as previously described (21). LAPC4 cells are grown in IMEM with 15% FBS plus 1% PS and 10 nm DHT until 80% confluent. Cells are scraped into DPBS, collected by centrifugation, and resuspended in Matrigel (10 mg/ml) at 3×10^7 cells/ml. Mice are injected s.c. with 100 μl of the cell suspension at one site on each flank. Tumors are measured weekly with calipers, and tumor volumes are calculated by the formula: […]).
In the first experiment, LAPC4 tumors are allowed to grow for 8-10 weeks following inoculation. […] Mice are castrated under methoxyfluorane anesthesia. Compounds 5 and 6 were prepared at 17.2 mg/ml in a 0.3% solution of hydroxypropyl cellulose in saline, and mice receiv s.c. injections daily. Control and castrated mice are treated with vehicle only. Tumors are measured weekly for the 4 weeks of treatment and tumor volumes are calculated. At the end of the treatment period, the animals are sacrificed under halothane anesthesia; tumors are excised, weighed and stored at −80° C. Animals are also weighed weekly and monitored for general health status and signs of possible toxicity due to treatment.
FIG. 6: In vivo antitumor activity of 5, 6 and orchidectomy on the growth of LAPC4 prostate tumors in male SCID mice. Groups of five mice with LAPC-4 tumors were treated with 5 (0.15 mmol/kg/day or 0.30 mmol/kg/day. Tumors volumes were measured weekly, and the percentage of change in tumor volume was determined after 28 days of treatment. The standard deviations of tumor volumes (not shown) were ±10-12% of the mean values.

Series [2] deals with LNCaP mutant AR-mediated transcription. As to the kind of experiment: Luciferase transactivation assay in LNCaP cells transfected with ARR2-Luc. Particulars: 18 h.
Description: Luciferase Transactivation Assay: Transcriptional activation assay is carried out as described previously by Kim et al., above, with minor modifications. […] The pRL-null (Promega) is used as the internal control. […] Luciferase activities are measured in triplicates by using dual luciferase assay system according to the manufacturer's instruction (Promega).
The bars represent the mean light units [counts per second (cps)/unit protein, i.e., relative luciferase activity] in triplicate wells from three separate experiments.
Series [3] concerns LAPC4 human prostate tumor xenograft. Description: LAPC4 xenograft, second experiment (treatment from day after inoculation). Particulars: 0.15 mmol/kg twice-daily s.c. Format: in vivo, mouse.
Text: The second in vivo experiment tests the ability of 5 to inhibit the growth of LAPC4 prostate cancer cells growing in SCID mice, and 16 (Chart 1), a previously identified potent CYP17 inhibitor/antiandrogen (Gregoriyev et al. and Njar et al., J. Med. Chem., 1998, 41, 902-912, above) and castration are used as reference treatments. In this experiment, treatment begins on the day that mice were inoculated subcutaneously with hormone-dependent LAPC4 cells and are castrated or injected sc twice daily with 5 or 16.
as §1
In the second experiment, mice are inoculated with LAPC4 cells and are divided into four groups of 5 mice each. The control and castrated group receiv vehicle, while the other two groups receiv either VN/85-1 (0.15 mmol/kg twice-daily, 9 a.m. and 5 p.m.) or 5 (0.15 mmol/kg twice-daily, 9 a.m. and 5 p.m.). These treatments are initiated one day after LAPC4 cell inoculation; continued for 14 weeks for control group, 19 weeks (for VN/85-1 and castration groups) and for 21 weeks for 5 treated group and tumors are measured and processed as described above.
FIG. 7: The effects of 5, 16, and orchidectomy on the formation and growth of LAPC4 prostate tumors in male SCID mice. 3×10^7 LAPC-4 cells were injected s.c. into the dorsal flank of SCID mice. One group of mice was castrated. The other groups of mice received either vehicle or 5 (0.15 mmol/kg twice-daily) or 16 (0.15 mmol/kg twice-daily). Daily treatment with 5 or 16 was initiated 1 day after cell inoculation. Tumors volumes were measured weekly, and the percentage of change in tumor volume was determined after 16 weeks of treatment * Indicates significant difference of 5 versus control, castration and 16 at week 14 (P 0.00065, 0.05 and 0.0097, respectively). ** Indicates significant difference of 5 versus castration and 16 at week 16 (P=0.047 and 0.0047, respectively). ↓-↓↓: Period of reduced administered dose of 5.

The conditions of series [4]: male, SCID, mouse, in vivo, 1 h. As for the experimental part:
At the end of the experiment, the levels of 5 in the tumors and organs of the 5-treated mice are determined. […] This metabolite has the same retention time as the metabolite observed in the plasma (vide supra). […] The animals in the VN/124-1-treated group are sacrificed 1 h after the last VN/124-1 administration, and tumor, liver and testis are harvested and snap frozen in liquid nitrogen. Tissue samples are homogenized in phosphate buffer (pH=7.4, […]). […] The residue is reconstituted in 100 μL of the HPLC mobile phase, filtered through 0.2 μm Teflon filters and then analyzed by HPLC as described above.

In series [5] the target is T1, CYP17 (Homo sapiens, UniProt P05093).
T1 sequence (P05093 1-508): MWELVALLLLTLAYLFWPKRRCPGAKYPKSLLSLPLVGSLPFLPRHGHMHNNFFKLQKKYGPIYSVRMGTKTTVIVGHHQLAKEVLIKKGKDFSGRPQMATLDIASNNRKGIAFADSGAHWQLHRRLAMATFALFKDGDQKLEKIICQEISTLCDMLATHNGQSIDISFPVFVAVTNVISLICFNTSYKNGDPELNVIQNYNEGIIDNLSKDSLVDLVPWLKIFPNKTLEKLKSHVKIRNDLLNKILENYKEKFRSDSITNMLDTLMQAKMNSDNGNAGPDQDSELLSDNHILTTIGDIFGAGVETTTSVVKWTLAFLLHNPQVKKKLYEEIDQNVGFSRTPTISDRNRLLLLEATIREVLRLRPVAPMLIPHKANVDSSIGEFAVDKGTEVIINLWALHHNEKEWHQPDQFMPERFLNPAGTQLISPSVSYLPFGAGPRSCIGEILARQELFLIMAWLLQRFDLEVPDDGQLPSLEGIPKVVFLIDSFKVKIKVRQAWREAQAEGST
Description: UV-vis difference spectroscopy, binding to heme iron of CYP17.

Series [6] relates to LNCaP cells. As to the kind of experiment: LNCaP cell growth, WST-1 viability assay. As to conditions: Homo sapiens, LNCaP, 168 h, read-out: IC50, inhibition of DHT-induced LNCaP cell proliferation, 1 nM DHT, 7 days, WST-1.
Description: To determine the effect of novel compounds on cell proliferation, cells are transferred into steroid-free medium three days prior to the start of the experiments. Steroid-free medium consisted of phenol red free RPMI supplemented with 5% dextran-coated, charcoal treated serum, and 1% penicillin/streptomycin solution. Growth studies are then performed by plating cells (3×10^4) in 24-well multi-well dishes (Corning, Inc. Corning, N.Y.). After a 24 hours attachment period, the medium is aspirated and replaced with steroid-free medium containing vehicle or the indicated concentration of DHT (1 nM) and compounds (0.1 μM-10 μM). Control wells are treated with vehicle (ethanol). This medium is changed every three days and the number of viable cells is compared by WST-1 [4-[3-(4-iodophenyl)-2-(4-nitrophenyl)-2H-5-tetrazolio]-1,3-benzene disulfonate] assay on the seventh day. Following incubation of cells for the above-mentioned time, 10% WST-1 solution is added to each well and incubated at 37° C. for three hours. Following incubation, plates are slightly shaken and immediately read at 450 nm with a scanning multi-well spectrophotometer. All results represent the average of a minimum of three wells. Additional control consists of medium alone with no cells.
Cells were grown in steroid-free medium before plating.

SMILES strings stand for the structures. “Also recorded” adds a separate entry of the source.

As for `C[C@]12CC[C@H](O)CC1=CC[C@@H]1[C@@H]2CC[C@]2(C)C(n3cnc4ccccc43)=CC[C@@H]12` [Compound 5, 3β-Hydroxy-17-(1H-benzimidazol-1-yl)androsta-5,16-diene], the “reduction of average final tumor volume compared to vehicle-treated control” value came to 41% in series [1] (0.15 mmol/kg once daily s.c.) and 86.5% in series [1] (0.15 mmol/kg twice daily s.c.). In series [2] (0.1 and 10.0 μM, without DHT), the “effect on luciferase activity, compound alone” value is recorded as “no effect”. The “effect on luciferase expression induced by 1.0 nM DHT” value in series [2] (with 1.0 nM DHT) was “decreased in a concentration-dependent manner”. Further, the “increase of tumor volume” value in series [3] (week 14) was found to be 0.5 fold. For the same compound, in series [3] (week 14 (b4 prints 50 mg/kg/twice daily)), the “reduction of tumor volume versus control mice” value amounted to 93.8%. In addition, in series [4], the “concentration in the s.c. tumors” value came out at 39.0±8.4 μg/mg tissue. The “type of difference spectrum induced” value in series [5] is on record as “type II difference spectrum”. Moreover, the IC50 in series [6] amounted to 6 µM.

In the case of `C[C@]12CCC(=O)C=C1CC[C@@H]1[C@@H]2CC[C@]2(C)C(n3cnc4ccccc43)=CC[C@@H]12` [Compound 6, 17-(1H-benzimidazol-1-yl)androsta-4,16-diene-3-one], the “reduction of average final tumor volume compared to vehicle-treated control” value is recorded as “ineffective” in series [1] (0.15 mmol/kg once daily s.c.) and “stimulation of tumor growth; also recorded: enhances tumor growth” in series [1] (0.15 mmol/kg twice daily s.c.).
